Experimental data taken from ChEMBL document CHEMBL1201862, “PubChem BioAssay data set” (2004).
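48-hour exposure; five concentrations; linearly interpolated endpoints. GI50 marks 50% less growth.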 Active and inactive are the calls of the source. Rule as the data show it: active = GI50 up to about 1.1 µM and inactive = higher.

Assays:
Experiment in all cases: inhibition of tumour cell growth, NCI panel, 48 h
A549 = test system: A549
CAKI-1 = test system: CAKI-1
CCRF-CEM = test system: CCRF-CEM
EKVX = test system: EKVX
HCC 2998 = test system: HCC 2998
NCI-H460 = test system: NCI-H460
NCI/ADR-RES = test system: NCI/ADR-RES
PC-3 = test system: PC-3
SF-268 = test system: SF-268
SF-295 = test system: SF-295
SK-MEL-28 = test system: SK-MEL-28
SN12C = test system: SN12C
SNB-19 = test system: SNB-19
SNB-75 = test system: SNB-75
SR = test system: SR
SW-620 = test system: SW-620
TK-10 = test system: TK-10
U-251 = test system: U-251
UACC-62 = test system: UACC-62
HL-60 = test system: HL-60

| Compound | GI50 (A549) | GI50 (CAKI-1) | GI50 (CCRF-CEM) | GI50 (EKVX) | GI50 (HCC 2998) | GI50 (NCI-H460) | GI50 (NCI/ADR-RES) | GI50 (PC-3) | GI50 (SF-268) | GI50 (SF-295) | GI50 (SK-MEL-28) | GI50 (SN12C) | GI50 (SNB-19) | GI50 (SNB-75) | GI50 (SR) | GI50 (SW-620) | GI50 (TK-10) | GI50 (U-251) | GI50 (UACC-62) | GI50 (HL-60) |
| --- | --- | --- | --- | --- | --- | --- | --- | --- | --- | --- | --- | --- | --- | --- | --- | --- | --- | --- | --- | --- |
| Nc1nc(N)nc(-c2cnccn2)n1 | > 100 µM (inactive) | > 100 µM (inactive) | > 100 µM (inactive) | > 100 µM (inactive) | > 100 µM (inactive) | > 100 µM (inactive) | > 100 µM (inactive) | > 100 µM (inactive) | > 100 µM (inactive) | > 100 µM (inactive) | > 100 µM (inactive) | > 100 µM (inactive) | > 100 µM (inactive) | > 100 µM (inactive) | > 100 µM (inactive) | > 100 µM (inactive) | > 100 µM (inactive) | > 100 µM (inactive) | > 100 µM (inactive) |  |
| O=C(O)c1cnc2[nH]ccn2c1=O | > 100 µM (inactive) |  | > 100 µM (inactive) | > 100 µM (inactive) | > 100 µM (inactive) | > 100 µM (inactive) | > 100 µM (inactive) | > 100 µM (inactive) | > 100 µM (inactive) | > 100 µM (inactive) | > 100 µM (inactive) | > 100 µM (inactive) | > 100 µM (inactive) | > 100 µM (inactive) | > 100 µM (inactive) | > 100 µM (inactive) | > 100 µM (inactive) | > 100 µM (inactive) | > 100 µM (inactive) | > 100 µM (inactive) |
| COC(=O)c1ccccc1C1CN=NC12Cc1cc(C)c(C)cc1C2=O (stereo unspecified) | 37.8 µM (inactive) | 61.2 µM (inactive) | 24.1 µM (inactive) | 42.1 µM (inactive) | 55.2 µM (inactive) | 44.1 µM (inactive) | 23.6 µM (inactive) | 32.1 µM (inactive) | 28.9 µM (inactive) | 37.5 µM (inactive) | 87.7 µM (inactive) | 48.9 µM (inactive) | 54.8 µM (inactive) | 29.9 µM (inactive) |  | 51.6 µM (inactive) | 25.8 µM (inactive) | 41.6 µM (inactive) | 53 µM (inactive) | 21.8 µM (inactive) |
| CCOC(=O)/C=C(/OCC)[C@@H]1C(C(=O)c2ccc(Cl)cc2)[C@@H]1/C(=C\C(=O)OCC)OCC (stereo partly specified) | 10.9 µM (inactive) | 16.9 µM (inactive) | 5.69 µM (inactive) | 14.5 µM (inactive) |  | 18.6 µM (inactive) | 3.6 µM (inactive) | 5.89 µM (inactive) | 45 µM (inactive) | 7.98 µM (inactive) | 41.7 µM (inactive) | 17.7 µM (inactive) | 11.9 µM (inactive) | 7.5 µM (inactive) | 17.7 µM (inactive) | 12.6 µM (inactive) | 6.32 µM (inactive) | 4.99 µM (inactive) | 28.8 µM (inactive) | 3.12 µM (inactive) |
| CC/C=C/c1cc2c(cc1O)CCC1C2CC[C@@]2(C)C1CC[C@@H]2O (stereo partly specified) | 4.12 µM (inactive) | 0.524 µM (active) | 1.73 µM (inactive) | 3.53 µM (inactive) | 14.7 µM (inactive) | 0.82 µM (active) | 0.667 µM (active) | 3.49 µM (inactive) | 10.2 µM (inactive) | 0.34 µM (active) | 11.3 µM (inactive) |  | 2.6 µM (inactive) | 1.44 µM (inactive) | 0.34 µM (active) | 1.12 µM (active) | 1.03 µM (active) | 1.7 µM (inactive) |  |  |
| O=C1c2scc(-c3ccccc3)c2-n2cccc21 | 18.5 µM (inactive) | 11.4 µM (inactive) | 19.7 µM (inactive) | 4.89 µM (inactive) | 20.4 µM (inactive) | 31.1 µM (inactive) | 17.5 µM (inactive) | 11.7 µM (inactive) | 14.3 µM (inactive) | 18.1 µM (inactive) | 15.2 µM (inactive) | 29.8 µM (inactive) | 15.9 µM (inactive) | 3.46 µM (inactive) | 13 µM (inactive) | 16.3 µM (inactive) | 49.8 µM (inactive) | 14.1 µM (inactive) | 17.9 µM (inactive) |  |
| O=C(CCc1cc(O)cc(O)c1)NCCc1ccc(O)c(O)c1 | > 100 µM (inactive) | > 100 µM (inactive) | 17.3 µM (inactive) | > 100 µM (inactive) | > 100 µM (inactive) | > 100 µM (inactive) | > 100 µM (inactive) | > 100 µM (inactive) | > 100 µM (inactive) | > 100 µM (inactive) | > 100 µM (inactive) | > 100 µM (inactive) | > 100 µM (inactive) | > 100 µM (inactive) | > 100 µM (inactive) | > 100 µM (inactive) | > 100 µM (inactive) | > 100 µM (inactive) | > 100 µM (inactive) |  |
